Measurements reported in patent publication US20220281846A1, “COMPOUNDS AND COMPOSITIONS FOR THE TREATMENT OF RESPIRATORY DISEASES” (THE UNIVERSITY OF MELBOURNE, priority 2018, published 2022).

Tested on: TGF-β-induced IL-11 in primary human parenchymal fibroblast cells (pFbs)
Assay: Human parenchymal fibroblast cell assay, TGF-β-induced IL-11 (ELISA)
Format: cell-based
Details: compounds 0.1-10 μM 30 min prior to TGF-β1, 16-24 hours, 4.00* is assigned to compounds that failed to cause 50% or more inhibition at 10 µM, read-out: pIC50 IL-11 suppression (converted)
Description: Human Parenchymal Fibroblast Cell Assay
Primary human parenchymal fibroblast cells (pFbs) were cultured from parenchyma of lung resection specimens and from non-transplanted lungs of donors without chronic respiratory disease. pFbs were passaged in Dulbecco's Modified Eagle's Media (DMEM) containing 10% (v/v) heat-inactivated fetal calf serum (FCS), 15 mM HEPES, 0.2% (v/v) sodium bicarbonate, 2 mM L-glutamine, 1% (v/v) non-essential amino acids, 1% (v/v) sodium pyruvate, 2.5 μg/mL amphotericin, 5 IU/mL penicillin and 50 μg/mL streptomycin. In some experiments the human lung fibroblast cell line, MRC5 (sourced from ATTC) was used as indicated. The MRC5 line was maintained under the same conditions as described for the pFb.
Prior to experimentation, pFb were incubated in serum-free DMEM containing 0.25% bovine serum albumin (BSA) and insulin-transferrin-selenium-containing supplement (Monomed A; CSL, Parkville, Melbourne, Australia). The cells were incubated with small molecular CK1δ inhibitors (0.1-10 μM) for 30 min prior to […] TGF-β1 (R&D Systems, Minneapolis, Minn.) and the incubation continued for 16-24 hours prior to harvest of supernatant for detection of immunoreactive IL-11. Stock solutions were made as 10 mM in 100% DMSO and diluted to the required concentration in medium containing 0.1% DMSO (final concentration).
Supernatants were collected for measurement of IL-11 (R&D DuoSet, DY218) by ELISA following the manufacturers' instructions. Generally, capture antibodies were initially diluted to the recommended concentrations using PBS buffer, and then used to coat the wells of 96-well microplates (Greiner, #655061) by adding 50 μL/well and incubated overnight at room temperature. Next day, solutions were discarded and wells were washed 3 times with wash buffer (PBS containing 0.1% (v/v) Tween-20) prior to the addition of 200 μL of blocking solution (PBS containing 1% (v/v) BSA) for 1 hour to block non-specific sites. Plates were then washed 3 times with wash buffer and 50 μL of samples or standards were then added to wells and incubated for 2 hours at room temperature. After the incubation, plates were washed 3 times with wash buffer and 50 μL of detection antibodies were added to wells and incubated for 2 hours at room temperature. Plates were then washed 3 times before adding streptavidin-conjugated horseradish peroxidase (at the recommended concentrations) for 45 min. Plates were then washed 5 times with wash buffer and 100 μL TMB substrate solution (equal parts A and B, BD Biosciences) was added to each well until sufficient signals emerged. The reactions were inactivated by adding 100 μL sulphuric acid (2M H2SO4). The absorbance was measured at 450 nm using the Multiskan Ascent® plate reader. The absorbance of the cytokine standards was fitted to a logistic equation, allowing the concentrations of cytokine in samples to be determined.
PIC50 values (the negative log of the concentration suppressing IL-11 level by 50%) for inhibition of TGF-β-induced IL-11 were interpolated from the linear regression of log concentration small molecule versus IL-11 level (Table 4 and FIG. 2).

Structure (SMILES): Nc1nccc(-c2c(-c3ccc(F)cc3)ncn2C2CCC(F)(F)CC2)n1 [ZH3-138, 4-(1-(4,4-Difluorocyclohexyl)-4-(4-fluorophenyl)-1H-imidazol-5-yl)pyrimidin-2-amine]
- IC50: 20 µM
